Laboratory results from patent US8354416B2 (Glaxo Group Limited, priority 2005, dated 2013).
Structures can show the parent of a compound that is named as a salt.

Tested on: influx of neutrophils to the lung in LPS-challenged rats
Assay: Rat LPS neutrophilia model
Type: in vivo
Settings: intratracheal, LPS aerosol 100 ug/ml, in at least one of the range of conditions tested, significance p<0.05
Procedure: Rat LPS Neutrophilia Model
The effect of compounds on the influx of neutrophils to the lung in LPS-challenged rats is evaluated as follows. The test compound is suspended in one of the following solutions: 0.5% tween 80/PBS, 0.5% tween 80/saline, 10% EtOH/saline (with pH adjusted to 2.0, or 8.0 with HCl, or unadjusted), Saline (pH 2.0, 6.5 or 8.0, 0.5% Tragacanth, 1% DMSO/20% Encapsin/Saline, or acidified 5% Tragacanth. The suspension process may be aided by the use of a glass homogenizer. For intratracheal administration, the animals are anesthetized with inhaled isoflurane and placed in a supine position, the trachea is intubated with a steel gavage needle (1.5 inch, 22 gauge, small ball) or a Penn-Century Microsprayer Aerosolizer (model IA-1B) and 200 ul of dosing solution is delivered. The animals are visually monitored during the recovery process, which typically occurs within two minutes. It is noted that the test compounds may be alternatively administered via the microsprayer in a dry powder blend with a suitable excipient, such as lactose.
Rats treated with compound or vehicle (15 min-24 hours pretreatment) are exposed to an LPS aerosol (100 ug/ml) for 15 min. Four hours later the rats are euthanized with pentobarbital (100 mg/kg, i.p.) and the airways are lavaged with 5 washes of 5 ml of phosphate buffered saline. The harvested cells are stained (Diffquick) and counted to determine total and differential cell data. […] Inhibition of neutrophil levels relative to no compound controls is calculated based on the differential counts.
The data is obtained as % inhibition using a particular concentration and pretreat time.

| Compound | inhibition of neutrophilia (neutrophil levels in airway lavage relative to no compound controls) |
| --- | --- |
| CCN(CC)CCCNc1nc(-c2cc(C(=O)Nc3ccccc3)ccc2C)c2ccc(=O)n(-c3c(F)cccc3F)c2n1 [Example 147, 3-[2-{[3-(diethylamino)propyl]amino}-8-(2,6-difluorophenyl)-7-oxo-7,8-dihydropyrido[2,3-d]pyrimidin-4-yl]-4-methyl-N-phenylbenzamide] | statistically nonsignificant inhibition of neutrophilia |
| CCNC(=O)c1ccc(C)c(-c2nc(N3CCC(N4CCC(C)CC4)CC3)nc3c2ccc(=O)n3-c2c(F)cccc2F)c1 [Example 173, 3-[8-(2,6-difluorophenyl)-2-(4-methyl-1,4′-bipiperidin-1′-yl)-7-oxo-7,8-dihydropyrido[2,3-d]pyrimidin-4-yl]-N-ethyl-4-methylbenzamide] | statistically significant inhibition of neutrophilia |
| Cc1ccc(C(=O)NC2CC2)cc1-c1nc(N2CCC(N)CC2)nc2c1ccc(=O)n2-c1c(F)cccc1F [Example 22, 3-[2-(4-amino-1-piperidinyl)-8-(2,6-difluorophenyl)-7-oxo-7,8-dihydropyrido[2,3-d]pyrimidin-4-yl]-N-cyclopropyl-4-methylbenzamide] | statistically significant inhibition of neutrophilia |
| Cc1ccc(C(=O)Nc2nccs2)cc1-c1nc(NCCCNC(C)(C)C)nc2c1ccc(=O)n2-c1c(F)cccc1F [Example 102, 3-[8-(2,6-difluorophenyl)-2-({3-[(1,1-dimethylethyl)amino]propyl}amino)-7-oxo-7,8-dihydropyrido[2,3-d]pyrimidin-4-yl]-4-methyl-N-1,3-thiazol-2-ylbenzamide] | statistically nonsignificant inhibition of neutrophilia |
| Cc1ccc(NC(=O)c2ccsc2)cc1-c1nc(NC2CC(C)(C)NC(C)(C)C2)nc2c1ccc(=O)n2-c1c(F)cccc1F [31(e), N-(3-{8-(2,6-difluorophenyl)-7-oxo-2-[(2,2,6,6-tetramethyl-4-piperidinyl)amino]-7,8-dihydropyrido[2,3-d]pyrimidin-4-yl}-4-methylphenyl)-3-thiophenecarboxamide] | statistically significant inhibition of neutrophilia |
| CNCCNc1nc(-c2cc(C(=O)NCc3ccccc3)ccc2C)c2ccc(=O)n(-c3c(F)cccc3F)c2n1 [Example 59, 3-(8-(2,6-difluorophenyl)-2-{[2-(methylamino)ethyl]amino}-7-oxo-7,8-dihydropyrido[2,3-d]pyrimidin-4-yl)-4-methyl-N-(phenylmethyl)benzamide] | statistically significant inhibition of neutrophilia |
| Cc1ccc(C(=O)NC(C)C)cc1-c1nc(N(C)CCCN(C)C)nc2c1ccc(=O)n2-c1c(F)cccc1F [Example 34, 3-{8-(2,6-difluorophenyl)-2-[[3-(dimethylamino)propyl](methyl)amino]-7-oxo-7,8-dihydropyrido[2,3-d]pyrimidin-4-yl}-4-methyl-N-(1-methylethyl)benzamide] | statistically significant inhibition of neutrophilia |
| CCN(CC)CCCNc1nc(-c2cc(C(=O)NC3CCC3)ccc2C)c2ccc(=O)n(-c3c(F)cccc3F)c2n1 [Example 137, N-cyclobutyl-3-[2-{[3-(diethylamino)propyl]amino}-8-(2,6-difluorophenyl)-7-oxo-7,8-dihydropyrido[2,3-d]pyrimidin-4-yl]-4-methylbenzamide trifluoroacetate] | statistically significant inhibition of neutrophilia |
| CCN(CC)CCCNc1nc(-c2cc(C(=O)NC)ccc2C)c2ccc(=O)n(-c3c(F)cccc3F)c2n1 [Example 119, 3-[2-{[3-(diethylamino)propyl]amino}-8-(2,6-difluorophenyl)-7-oxo-7,8-dihydropyrido[2,3-d]pyrimidin-4-yl]-N,4-dimethylbenzamide] | statistically significant inhibition of neutrophilia |
| Cc1ccc(C(=O)NC2CC2)cc1-c1nc(N2CCC(N3CCC(C)CC3)CC2)nc2c1ccc(=O)n2-c1c(F)cccc1F [Example 178, N-cyclopropyl-3-[8-(2,6-difluorophenyl)-2-(4-methyl-1,4′-bipiperidin-1′-yl)-7-oxo-7,8-dihydropyrido[2,3-d]pyrimidin-4-yl]-4-methylbenzamide] | statistically nonsignificant inhibition of neutrophilia |
| CNCCNc1nc(-c2cc(C(=O)NCCc3ccccc3)ccc2C)c2ccc(=O)n(-c3c(F)cccc3F)c2n1 [Example 29, 3-(8-(2,6-difluorophenyl)-2-{[2-(methylamino)ethyl]amino}-7-oxo-7,8-dihydropyrido[2,3-d]pyrimidin-4-yl)-4-methyl-N-(2-phenylethyl)benzamide] | statistically significant inhibition of neutrophilia |
| Cc1ccc(C(=O)Nc2ccc(F)cc2)cc1-c1nc(N(C)CCCN(C)C)nc2c1ccc(=O)n2-c1c(F)cccc1F [Example 115, 3-{8-(2,6-difluorophenyl)-2-[[3-(dimethylamino)propyl](methyl)amino]-7-oxo-7,8-dihydropyrido[2,3-d]pyrimidin-4-yl}-N-(4-fluorophenyl)-4-methylbenzamide] | statistically nonsignificant inhibition of neutrophilia |
| CCCNC(=O)c1ccc(C)c(-c2nc(N3CCC(N)CC3)nc3c2ccc(=O)n3-c2c(F)cccc2F)c1 [Example 69, 3-[2-(4-amino-1-piperidinyl)-8-(2,6-difluorophenyl)-7-oxo-7,8-dihydropyrido[2,3-d]pyrimidin-4-yl]-4-methyl-N-propylbenzamide] | statistically significant inhibition of neutrophilia |
| CNCCNc1nc(-c2cc(C(=O)NCC3CC3)ccc2C)c2ccc(=O)n(-c3c(F)cccc3F)c2n1 [Example 4] | statistically significant inhibition of neutrophilia |
| Cc1ccc(C(=O)NC2CCCC2)cc1-c1nc(N2CCC(N3CCC(C)CC3)CC2)nc2c1ccc(=O)n2-c1c(F)cccc1F [Example 169, N-cyclopentyl-3-[8-(2,6-difluorophenyl)-2-(4-methyl-1,4′-bipiperidin-1′-yl)-7-oxo-7,8-dihydropyrido[2,3-d]pyrimidin-4-yl]-4-methylbenzamide] | statistically nonsignificant inhibition of neutrophilia |
| Cc1ccc(C(=O)Nc2nccs2)cc1-c1nc(N(C)CCCN(C)C)nc2c1ccc(=O)n2-c1c(F)cccc1F [Example 107, 3-{8-(2,6-difluorophenyl)-2-[[3-(dimethylamino)propyl](methyl)amino]-7-oxo-7,8-dihydropyrido[2,3-d]pyrimidin-4-yl}-4-methyl-N-1,3-thiazol-2-ylbenzamide] | statistically significant inhibition of neutrophilia |
| Cc1ccc(NC(=O)c2cccc3cc[nH]c23)cc1-c1nc(NC(CO)CO)nc2c1ccc(=O)n2-c1c(F)cccc1F [Example 44, N-[3-(8-(2,6-difluorophenyl)-2-{[2-hydroxy-1-(hydroxymethyl)ethyl]amino}-7-oxo-7,8-dihydropyrido[2,3-d]pyrimidin-4-yl)-4-methylphenyl]-1H-indole-7-carboxamide trifluoroacetate] | statistically significant inhibition of neutrophilia |
| Cc1ccc(C(=O)Nc2ccc(F)cc2)cc1-c1nc(NCc2ncc[nH]2)nc2c1ccc(=O)n2-c1c(F)cccc1F [Example 78, 3-{8-(2,6-difluorophenyl)-2-[(1H-imidazol-2-ylmethyl)amino]-7-oxo-7,8-dihydropyrido[2,3-d]pyrimidin-4-yl}-N-(4-fluorophenyl)-4-methylbenzamide] | statistically significant inhibition of neutrophilia |
| Cc1ccc(C(=O)Nc2ccc(F)cc2)cc1-c1nc(NCCN(C)C)nc2c1ccc(=O)n2-c1c(F)cccc1F [Example 112, 3-(8-(2,6-difluorophenyl)-2-{[2-(dimethylamino)ethyl]amino}-7-oxo-7,8-dihydropyrido[2,3-d]pyrimidin-4-yl)-N-(4-fluorophenyl)-4-methylbenzamide] | statistically nonsignificant inhibition of neutrophilia |
| Cc1ccc(C(=O)Nc2nccs2)cc1-c1nc(N2CCC(N)CC2)nc2c1ccc(=O)n2-c1c(F)cccc1F [Example 73, 3-[2-(4-amino-1-piperidinyl)-8-(2,6-difluorophenyl)-7-oxo-7,8-dihydropyrido[2,3-d]pyrimidin-4-yl]-4-methyl-N-1,3-thiazol-2-ylbenzamide] | statistically significant inhibition of neutrophilia |
